# Like-named read-outs stand apart in the source and are kept apart here.
# Columns and labels:
# Experiment in all cases: microscale thermophoresis
# Type in all cases: binding
# [1] = molecular target: T1, PYL3 (Arabidopsis thaliana, UniProt Q9SSM7)
# T1 construct: NT-647-NHS labelled
# T1 sequence (Q9SSM7 1-209): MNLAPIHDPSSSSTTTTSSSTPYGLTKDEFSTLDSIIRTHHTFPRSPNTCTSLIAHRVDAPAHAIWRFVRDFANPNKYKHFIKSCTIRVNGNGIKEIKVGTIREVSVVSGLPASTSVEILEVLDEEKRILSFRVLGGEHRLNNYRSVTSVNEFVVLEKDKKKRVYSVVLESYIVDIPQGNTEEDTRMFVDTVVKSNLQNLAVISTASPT
# [2] = molecular target: T2, PYR1 (Arabidopsis thaliana, UniProt O49686)
# T2 construct: NT-647-NHS labelled; 'dimer PYR1' in the docking section
# T2 sequence (O49686 1-191): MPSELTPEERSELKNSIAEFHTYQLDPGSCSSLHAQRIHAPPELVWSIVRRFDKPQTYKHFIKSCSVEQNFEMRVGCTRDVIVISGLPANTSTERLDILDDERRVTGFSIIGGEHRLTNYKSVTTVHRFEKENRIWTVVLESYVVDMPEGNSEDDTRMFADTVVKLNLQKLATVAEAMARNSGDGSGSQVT
# Source text: microscale thermophoresis on PYR1
# [3] = molecular target: T3, PYL6 (Arabidopsis thaliana, UniProt Q8S8E3)
# T3 construct: NT-647-NHS labelled
# T3 sequence (Q8S8E3 1-215): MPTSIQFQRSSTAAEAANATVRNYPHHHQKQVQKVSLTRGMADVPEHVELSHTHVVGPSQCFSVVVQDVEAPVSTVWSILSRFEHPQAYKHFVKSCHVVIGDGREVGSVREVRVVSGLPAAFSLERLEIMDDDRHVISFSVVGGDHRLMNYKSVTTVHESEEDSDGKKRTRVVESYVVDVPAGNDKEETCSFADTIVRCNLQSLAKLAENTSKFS
# Source text: microscale thermophoresis on PYL6
# [4] = molecular target: T4, PYL2 (Arabidopsis thaliana, UniProt O80992)
# T4 construct: NT-647-NHS labelled
# T4 sequence (O80992 1-190): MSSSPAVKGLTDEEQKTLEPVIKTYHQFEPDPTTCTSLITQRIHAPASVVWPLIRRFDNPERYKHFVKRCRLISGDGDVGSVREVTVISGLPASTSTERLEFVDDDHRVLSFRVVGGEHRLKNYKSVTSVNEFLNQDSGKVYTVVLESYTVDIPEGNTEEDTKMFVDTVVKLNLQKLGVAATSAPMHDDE
# Source text: microscale thermophoresis on PYL2
# [5] = molecular target: T5, PYL10 (Arabidopsis thaliana, UniProt Q8H1R0)
# T5 construct: NT-647-NHS labelled; 'monomer PYL10' in the docking section
# T5 sequence (Q8H1R0 1-183): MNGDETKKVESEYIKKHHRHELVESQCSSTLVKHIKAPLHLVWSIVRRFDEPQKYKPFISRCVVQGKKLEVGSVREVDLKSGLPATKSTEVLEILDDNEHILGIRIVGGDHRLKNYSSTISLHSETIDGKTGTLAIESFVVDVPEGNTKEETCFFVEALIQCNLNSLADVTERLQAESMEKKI
# Source text: microscale thermophoresis on PYL10
# [6] = PBS, NT-647-NHS-labelled receptor
Compound,Kd [1],Kd [2],Kd [3],Kd [4],Kd [5],"Kd [1, 6]","Kd [2, 6]","Kd [3, 6]","Kd [4, 6]","Kd [5, 6]"
CCCCCCOc1ccc2c(c1)C(=O)C(C)(C)CC2(O)/C=C/C(C)=C\C(=O)O (centres unmarked) [APA6],4.09 ± 0.65 µM,121 ± 13.6 µM,1.62 ± 0.17 µM,2.91 ± 0.17 µM,44.9 ± 8.09 µM,–,–,–,–,–
CC(=C/C(=O)O)/C=C/C1(O)CC(C)(C)C(=O)c2cc(OCCCCc3ccccc3)ccc21 (centres unmarked) [APA11],3.11 ± 0.4 µM,59.4 ± 3.41 µM,0.9 ± 0.22 µM,0.46 ± 0.09 µM,17.6 ± 2.11 µM,–,–,–,–,–
CC(=C/C(=O)O)/C=C/C1(O)CC(C)(C)C(=O)c2cc(OCCC(C)CC(C)(C)C)ccc21 (centres unmarked) [APA14],5.18 ± 0.84 µM,60.8 ± 9.02 µM,2.55 ± 0.46 µM,0.11 ± 0.01 µM,45.5 ± 2.47 µM,–,–,–,–,–
CC(=C/C(=O)O)/C=C/C1(O)CC(C)(C)C(=O)c2cc(OCCC(C)CCCC(C)C)ccc21 (centres unmarked) [APA15],7.95 ± 1.66 µM,37.9 ± 3.09 µM,1.99 ± 0.32 µM,2.04 ± 0.29 µM,36.3 ± 2.18 µM,–,–,–,–,–
CC(C)=CCCC(C)CCOc1ccc2c(c1)C(=O)C(C)(C)CC2(O)/C=C/C(C)=C\C(=O)O (centres unmarked) [APA16],7.84 ± 0.95 µM,53.4 ± 4.71 µM,2.1 ± 0.31 µM,5.84 ± 0.24 µM,65 ± 2.76 µM,–,–,–,–,–
CCOCCOc1ccc2c(c1)C(=O)C(C)(C)CC2(O)/C=C/C(C)=C\C(=O)O (centres unmarked) [APA17],19 ± 2.1 µM,42.2 ± 6.71 µM,13.1 ± 1.46 µM,7.07 ± 0.21 µM,23.9 ± 2.68 µM,–,–,–,–,–
COCCOCCOc1ccc2c(c1)C(=O)C(C)(C)CC2(O)/C=C/C(C)=C\C(=O)O (centres unmarked) [APA18],9.33 ± 1.39 µM,73.9 ± 5.28 µM,4.17 ± 0.93 µM,0.14 ± 0.02 µM,37.5 ± 2.83 µM,–,–,–,–,–
"CC1=CC(=O)CC(C)(C)[C@@]1(O)/C=C/C(C)=C\C(=O)O [compound 1, ABA]",–,188 ± 29 µM,19.5 ± 3.92 µM,16.2 ± 4.84 µM,152 ± 31 µM,–,–,–,–,–
iso-PhABA,–,–,–,–,–,16.3 ± 2.78 µM,187 ± 22.3 µM,6.77 ± 0.32 µM,7.54 ± 2.36 µM,92 ± 5.13 µM
